Source: patent US20110044938A1 (NYCOMED GMBH, priority 2006, published 2011)

Experiments:
[1] = test system: RKO (RKOp27) human colon adenocarcinoma cells; test: Alamar Blue cell viability assay, anti-proliferative/cytotoxic activity on proliferating RKO subclones; type: cell-based; conditions: RKOp27, 72 h, RKO p27 uninduced (proliferating) cells, value = class bound given in Table A, read-out: −logIC50 RKO p27 uninduced (proliferating) (converted)
Protocol: The anti-proliferative/cytotoxic activity of the compounds described herein, can be tested on subclones of RKO (RKOp27) human colon adenocarcinoma cells (Schmidt et al., Oncogene 19, 2423-2429; 2000) using the Alamar Blue cell viability assay (described in O'Brien et al. Eur J Biochem 267, 5421-5426, 2000). The compounds are dissolved as 20 mM solutions in dimethylsulfoxide (DMSO) and subsequently diluted in semi-logarithmic steps. DMSO dilutions are further diluted 1:100 into Dulbecco's modified Eagle's medium (DMEM) containing 10% fetal calf serum to a final concentration twice as much as the final concentration in the test. RKO subclones are seeded into 96 well flat bottom plates at a density of 5000 cells per well in a volume of 50 μl per well. 24 hours after seeding the 50 μl each of the compound dilutions in DMEM medium are added into each well of the 96 Well plate. Each compound dilution is tested as quadruplicates. Wells containing untreated control cells are filled with 50 μl DMEM medium containing 1% DMSO. The cells are then incubated with the substances for 72 hours at 37° C. in a hunified atmosphere containing 5% carbon dioxide. To determine the viability of the cells, 10 μl of an Alamar Blue solution (Biosource) are added and the fluorescence is measured at an extinction of 544 nm and an emission of 590 nm. For the calculation of the cell viability the emission value from untreated cells is set as 100% viability and the emission rates of treated cells are set in relation to the values of untreated cells. Viabilities are expressed as % values.
The corresponding IC50 values of the compounds for anti-proliferative/cytotoxic activity are determined from the concentration-effect curves.
(§1) Representative −log IC50 [mol/l] values for anti-proliferation/cytotoxicity determined in the mentioned assays follow from the following table A, in which the numbers of the compound correspond to the numbers of the examples.

[2] = test system: subclones of RKO colon adenocarcinoma cells (RKOp27 or RKOp21) arrested by Ponasterone A; test: Alamar Blue cell viability assay, cell cycle specific mode of action: cells arrested by ectopic p27Kip1 induced by Ponasterone A versus proliferating cells; type: cell-based; conditions: Homo sapiens, RKO p27 induced (arrested) cells, 10 μM Ponasterone A, 72 hours, value = class bound given in Table A, read-out: −logIC50 RKO p27 induced (arrested) (converted)
Protocol: To determine the cell cycle specific mode of action, subclones of RKO colon adenocarcinoma cells (RKOp27 or RKOp21 as described by Schmidt et al. in Oncogene 19, 2423-2429; 2000) are seeded into 96 well flat bottom plates at a density of 15000 cells per well in a volume of 50 μl per well in DMEM growth medium with 10% FCS containing 10 μM Ponasterone A. 24 hours after seeding the 50 μl each of the compound dilutions in DMEM medium are added into each well of the 96 Well plate. Each compound dilution is tested as quadruplicates. Wells containing untreated control cells are filled with 50 μl DMEM medium containing 1% DMSO. The cells are then incubated with the substances for 72 hours at 37° C. in a humidified athmosphere containing 5% carbon dioxide. To determine the viability of the cells, 10 μl of an Alamar Blue solution (Biosource) are added and the fluorescence was measured at an extinction of 544 nm and an emission of 590 nm. For the calculation of the cell viability the emission value from untreated cells is set as 100% viability and the emission rates of treated cells are set in relation to the values of untreated cells. Viabilities are expressed as % values. Viability is compared of proliferating cells grown in the absence of the inducer Ponasterone A, versus viability of cells arrested by the expression of ectopic p27Kip1 induced by Ponasterone A.
as §1

Structure (SMILES)	IC50 [1] [nM]	IC50 [2] [nM]
N#Cc1c(NC(=O)/C=C/c2cccnc2)sc2c1CCC(OC(=O)NCc1ccccc1)C2 (stereo not drawn) [Example 2, Benzyl-carbamic acid 3-cyano-2-((E)-3-pyridin-3-yl-allanoylamino)-4,5,6,7-tetrahydro-benzo[b]thiophen-6-yl ester]	501 to 2000	≥ 10000
CCNC(=O)OC1CCc2c(sc(NC(=O)/C=C/c3cccnc3)c2C#N)C1 (stereo not drawn) [Example 3, Ethyl-carbamic acid 3-cyano-2-((E)-3-pyridin-3-yl-allanoylamino)-4,5,6,7-tetrahydro-benzo[b]thiophen-6-yl ester]	≤ 501	≥ 100000
CCOC(=O)OC1CCc2c(sc(NC(=O)/C=C/c3cccnc3)c2C#N)C1 (stereo not drawn) [Example 4, Carbonic acid 3-cyano-2-((E)-3-pyridin-3-yl-allanoylamino)-4,5,6,7-tetrahydro-benzo[b]thiophen-6-yl ester ethyl ester]	≤ 501	≥ 100000
CCNC(=O)OC1CCc2c(sc(NC(=O)/C=C/c3ccccc3OCC)c2C#N)C1 (stereo not drawn) [Example 5, Ethyl-carbamic acid 3-cyano-2-[(E)-3-(2-ethoxy-phenyl)-allanoylamino]-4,5,6,7-tetrahydro-benzo[b]thiophen-6-yl ester]	≤ 501	≥ 10000
CCOC(=O)OC1CCc2c(sc(NC(=O)/C=C/c3ccccc3OCC)c2C#N)C1 (stereo not drawn) [Example 6, Carbonic acid 3-cyano-2-[(E)-3-(2-ethoxy-phenyl)-allanoylamino]-4,5,6,7-tetrahydro-benzo[b]thiophen-6-yl ester ethyl ester]	501 to 2000	≥ 100000
N#Cc1c(NC(=O)/C=C/c2cccnc2)sc2c1CCC(COC(=O)NCc1ccccc1)C2 (stereo not drawn) [Example 7, Benzyl-carbamic acid 3-cyano-2-((E)-3-pyridin-3-yl-allanoylamino)-4,5,6,7-tetrahydro-benzo[b]thiophen-6-ylmethyl ester]	≤ 501	≥ 100000
CCOC(=O)OCC1CCc2c(sc(NC(=O)/C=C/c3cccnc3)c2C#N)C1 (stereo not drawn) [Example 8, Carbonic acid 3-cyano-2-((E)-3-pyridin-3-yl-allanoylamino)-4,5,6,7-tetrahydro-benzo[b]thiophen-6-ylmethyl ester ethyl ester]	501 to 2000	≥ 100000
CCNC(=O)OCC1CCc2c(sc(NC(=O)/C=C/c3cccnc3)c2C#N)C1 (stereo not drawn) [Example 9, Ethyl-carbamic acid 3-cyano-2-((E)-3-pyridin-3-yl-allanoylamino)-4,5,6,7-tetrahydro-benzo[b]thiophen-6-ylmethyl ester]	501 to 2000	≥ 100000
CCNC(=O)OC[C@H]1CCc2c(sc(NC(=O)/C=C/c3cccnc3)c2C#N)C1 [Example 9a, (S)-Ethyl-carbamic acid 3-cyano-2-((E)-3-pyridin-3-yl-allanoylamino)-4,5,6,7-tetrahydro-benzo[b]thiophen-6-ylmethyl ester]	≤ 501	≥ 100000
CCNC(=O)OC[C@@H]1CCc2c(sc(NC(=O)/C=C/c3cccnc3)c2C#N)C1 [Example 9b, (R)-Ethyl-carbamic acid 3-cyano-2-((E)-3-pyridin-3-yl-allanoylamino)-4,5,6,7-tetrahydro-benzo[b]thiophen-6-ylmethyl ester]	≤ 501	≥ 100000
CCNC(=O)OCC1CCc2c(sc(NC(=O)/C=C/c3ccccc3OCC)c2C#N)C1 (stereo not drawn) [Example 10, Ethyl-carbamic acid 3-cyano-2-[(E)-3-(2-ethoxy-phenyl)-allanoylamino]-4,5,6,7-tetrahydro-benzo[b]thiophen-6-ylmethyl ester]	≤ 501	≥ 100000
CCOc1ccccc1/C=C/C(=O)Nc1sc2c(c1C#N)CCC(OC(=O)OCCOC)C2 (stereo not drawn) [Example 11, Carbonic acid 3-cyano-2-[(E)-3-(2-ethoxy-phenyl)-allanoylamino]-4,5,6,7-tetrahydro-benzo[b]thiophen-6-yl ester 2-methoxy-ethyl ester]	≤ 501	≥ 100000
